This is an account of results in paper PMC8563958 (Cell Research, 2021).

The test system of series [1] is MC4R. As to conditions: cited from earlier work. From the text: (Fig. 1a). The binding mode of SHU9119 is generally like that of NDP-α-MSH. […] W6^3 is also clamped by H264^6.54 (TM6) and S188^EL2, and R5^2 connects TM3−TM4 and EL2 through hydrogen bonds with S188^EL2 and I185^4.61 (Fig. 2i; Supplementary information, Fig. S11 and Table S4).
Another series relates to MC1R. As to conditions: cited from earlier work.
The next series deals with MC5R. As to conditions: MC5R with V126; cited from earlier work.
The next series deals with MC4R L133 to methionine. As to conditions: cited from earlier work.
The subject of series [2] is MC4R. Details: method as in earlier work. As to conditions: ref 4 (AgRP); ref not given for MSH; cited from earlier work.
Series [3] deals with MC4R D122S, N-terminally HA-tagged (human) (UniProt P32245).
A further series deals with T1, wild-type MC4R (WT) (Homo sapiens, UniProt P32245).
T1 construct: expressed in transfected cells; host or cells: HEK293 (transient, vector pcDps)
The series is classed as cell-based. As to conditions: set as 100 %, 1 µM ligand, HEK293, 40 min 37 °C, 1 mM IBMX, 4-8 experiments in triplicates.

The next series concerns the target T2, MC4R H158A (Homo sapiens, UniProt P32245, H158A).
T2 construct: expressed in transfected cells; host or cells: HEK293 (transient, vector pcDps)
The format is cell-based.

The conditions of series [4]: ref not given, cited from earlier work. From the text: In contrast to other M ...
In series [5] the target is wild-type MC4R, N-terminally HA-tagged (signalling construct) (human) (UniProt P32245).

Read-outs that look alike come from different tables or passages of the source.

In the case of SHU9119, in the series with MC4R [1] (antagonism), the “mode of action at MC4R” value was “antagonizes the MC4R”. For the same compound, in the series on MC1R (MC1R with M128, 37 (ref 36)), the “mode of action at MC1R” value is “partial agonist”. Also, the “mode of action in MC1R–Gs complex” value in the series on MC1R (cryo-EM structure of active MC1R–Gs complex) is “acting as an agonist”. In addition, the “mode of action at MC5R” value with MC5R is reported as “partial agonist”. Moreover, the “mode of action at L133M mutant” value with MC4R L133 to methionine is reported as “reverses SHU9119 to an agonist”.

In the case of “agouti-related peptide (SSRRCVRLHESCLGQQVPCCDPCATCYCRFFNAFCYCRKLGTAMNPCSRT; UniProt O00253 83-132, looked up) [AgRP]”, the “mode of action at MC4R” value in the series with MC4R [1] (reducing high levels of basal signaling activity) is reported as “inverse agonist”. The effect on appetite result in the series on MC4R [2] is given as “orexigenic effects”.

As to NDP-α-MSH (peptide), in [3], the EC50 of cAMP accumulation (Gs signaling), transfected HEK293 cells amounted to 9 nM.

Take `CC(=O)N[C@@H](CCCNC(=N)N)C(=O)N[C@H]1CSSC[C@@H](C(N)=O)NC(=O)[C@H](Cc2c[nH]c3ccccc23)NC(=O)[C@H](CCCNC(=N)N)NC(=O)[C@@H](Cc2ccccc2)NC(=O)[C@H](Cc2c[nH]cn2)NC(=O)[C@@H](C)NC1=O` [setmelanotide]: the “Emax cAMP” value on wild-type MC4R (WT) was 100 % of WT. Also, the “maximum Gq/11 signaling” value at MC4R H158A amounted to 50%. In addition, in [4] (in contrast to other MC4R agonists), the “Gs signaling-related adverse effects” value is reported as “does not cause common Gs signaling-related adverse effects, such as tachycardia or hypertension”. The adverse effects entry in series [4] (rare, moderate) is recorded as “skin hyperpigmentation”.

On to β-MSH, for which the effect on appetite result in the series on MC4R [2] was “appetite-reducing effects”.

Regarding melanotan II, the figures for the “mode of action at MC4R” value in the series with MC4R [1] and with MC4R [1] (listed as melatonan II) were “agonizes MC4R” and “agonistic effects”, respectively.

As for setmelanotide (peptide), the potency (EC50) of cAMP accumulation, transfected HEK293 cells in series [5] is 1.2 nM.
